Assay results as given in patent US20260248828A1, “Pyropheophorbide Analogues for Therapy and Diagnosis” (RMW Cho Group Limited, priority 2023, published 2026).
Like-named read-outs stand apart in the source and are kept apart here.

How the values were obtained:
[1] = tested on: SKOV3 ovarian cancer cells
[2] = tested on: SKOV3 ovarian cancer cells; assay: Phototoxicity in SKOV3 cells after 660 nm light activation (AlamarBlue viability); assay type: cell-based, Human; conditions: 24 h uptake, 660 nm laser or LED 50 mW/cm^2 for 5 mins (15 J/cm^2), viability 24 h after activation
Method: Samples were stored at 4° C. protected from light.
All data are shown as mean±SD (where appropriate).
To test for phototoxicity, cells incubated with pyropheophorbide a analogues (0-20 μM in DMSO) had culture media replaced after 24 hours (as above) and were then exposed to a 660 nm laser (Invion) or light-emitting diode (LED) panel (Invion) with optical power density at 50 mW/cm^2 for 5 mins (total 15 J/cm^2). Laser and LED exposure induce an equivalent response in relation to phototoxicity. Following activation, cells were cultured for a further 24 hours. Media was then replaced with fresh media containing AlamarBlue, and % viable cells remaining assessed as above. Controls included cells treated with pyropheophorbide a analogues but not activated by laser light; cells without pyropheophorbide a analogue treatment but with laser light; and untreated controls. All measurements were made in quadruplicate.
To evaluate the therapeutic potential of pyropheophorbide a analogues, the therapeutic index (TI) was calculated. TI provides a quantitative measurement to describe relative drug safety, by comparing the drug concentration required for desirable effects versus the concentration resulting in undesirable off-target toxicity. TI was calculated using phototoxicity IC90 vs dark toxicity IC10.

[3] = tested on: SKOV3 ovarian cancer cells; assay: Inherent cytotoxicity (dark toxicity) in SKOV3 cells without light (AlamarBlue viability); conditions: 24 h incubation, no light activation
Method: Photosensitizers (e.g. pyropheophorbide a analogue, chlorin e4 disodium (provided by Advanced Molecular Technologies, Scoresby) or Talaporfin sodium (purchased from Focus Bioscience cat #HY-16477-5MG)) were resuspended in 100% dimethylsulfoxide (DMSO) at a concentration of 5.5 mM. Samples were stored at 4° C. protected from light.
For in vitro experiments, photosensitizers (stock solution 5.5 mM in 100% DMSO) were diluted 1:100 in concentrated excipient solution (final 55 M photosensitizer in 10% w/v Kollidon-12, 42.4% w/v polysorbate 80, 0.6% w/v citric acid anhydrous, 40% w/v ethanol, 1.0% DMSO). Serial dilutions were prepared in cell culture media (Dulbecco's Modified Eagle Medium/Nutrient Mixture F-12 (DMEM/F-12)) supplemented with 10% v/v Fetal Bovine Serum, 100 U/mL penicillin, 100 μg/mL streptomycin and the same excipient solution at a constant 1:55 dilution.
Human ovarian cancer cell line SKOV3 (ATCC #HTB-77) was maintained in Dulbecco's Modified Eagle Medium/Nutrient Mixture F-12 (DMEM/F-12), supplemented with 10% v/v Fetal Bovine Serum, 100 U/mL penicillin and 100 μg/mL streptomycin. Monolayer cultures were grown in a humidified incubator at 37° C. with 5% CO2. Once cells had reached ~80% confluence, spent media was replaced with media containing photosensitizer at the required concentration and cells were incubated for the desired period of time to allow photosensitizer uptake.
Spectral absorbance and viability measurements were normalized in the range 0-100%, with a minimum of 0 and a maximum value determined from the dataset. Dose response was determined using a sigmoidal four-point non-linear regression with variable slope, and IC10 or IC90 calculated for each compound.
SKOV3 cells were seeded in 96-well black wall plates (Greiner #655090) at a cell density of 5000 cells in 100 μl culture medium per well. On reaching ~60% confluence, media was aspirated and replaced with fresh media containing the relevant pyropheophorbide a analogue from 0-100 μM in DMSO. Cells were incubated for a further 24 hours, allowing uptake of pyropheophorbide a analogues.
To test for inherent cytotoxicity (i.e. “dark toxicity”) of the pyropheophorbide a analogues, the culture media was replaced after 24 hours with fresh media containing 10% (v/v) AlamarBlue Cell Viability Reagent (ThermoFisher) and cells incubated at 37° C. for 6 hours. Untreated cells were used as a control. Fluorescence (Ex 555 nm/Em 596 nm) was measured using a Cytation 3 Cell Imaging Multi-Mode Reader (Biotek) or a CLARIOstar Plus Microplate Readear (BMG Labtech), and cytotoxicity assessed according to the % viable cells remaining. All measurements were made in quadruplicate.
The phototoxicity and inherent cytotoxicity (i.e. “dark toxicity”) of pyropheophorbide a analogues were assessed as previously using SKOV3 ovarian cancer cells. For comparative purposes, pyropheophorbide a analogues were compared against chlorin e4 disodium and Talaporfin sodium, a clinically approved photosensitizer used in the photodynamic treatment of lung cancers. Phototoxicity IC90 values and dark toxicity IC10 values were calculated using a log[inhibitor]-vs normalized response dose curve with variable slope, using the formula Y=100/(1+(IC90/X)^HillSlope (phototoxicity IC90)) or Y=100/(1+(IC10/X)^HillSlope (dark toxicity IC10)).

[4] = Homo sapiens, SK-OV-3, light or radiation study

| Compound | Dark toxicity μM (IC10) ([1]; human, 24 h) [µM] | IC90 [2, 4] [µM] | Dark toxicity μM (IC10) [3] [µM] | Dark toxicity μM (IC10) [1] [µM] | IC90 [2] [µM] |
| --- | --- | --- | --- | --- | --- |
| CCC1=C(C)c2cc3[nH]c(cc4nc(c5c6[nH]c(cc1n2)c(C)c6C(=O)C5)[C@@H](CCC(=O)OC)[C@@H]4C)c(C)c3CO [Comparative Compound 1, pyropheophorbide a 9-hydroxymethyl methyl ester, reference compound] | 15.500 | 0.458 | – | – | – |
| CCC1=C(C)c2cc3[nH]c(cc4nc(c5c6[nH]c(cc1n2)c(C)c6C(=O)C5)[C@@H](CCC(=O)OC)[C@@H]4C)c(C)c3COC(=O)NCCC[P+](c1ccccc1)(c1ccccc1)c1ccccc1 [Compound 1, pyropheophorbide a methyl ester 9-(N-(3-triphenylphosphoniumpropyl)bromide)carbamate] | – | 0.038 | 3.088 | – | – |
| C=Cc1c(C)c2cc3nc(c(CC(=O)N[C@@H](CC(=O)O)C(=O)O)c4[nH]c(cc5nc(cc1[nH]2)C(C)=C5CC)c(C)c4C(=O)O)[C@@H](CCC(=O)O)[C@@H]3C [Talaporfin sodium] | 11.10 | – | – | – | – |
| C=Cc1c(C)c2cc3nc(c(C)c4[nH]c(cc5nc(cc1[nH]2)C(C)=C5CC)c(C)c4C(=O)O)[C@@H](CCC(=O)O)[C@@H]3C [Chlorin e4 disodium, chlorin e4 disodium, reference compound] | – | – | – | 40.23 | 21.3 |
| CCC1=C(C)c2cc3[nH]c(cc4nc(c5c6[nH]c(cc1n2)c(C)c6C(=O)C5)[C@@H](CCC(=O)OC)[C@@H]4C)c(C)c3CNCCC[P+](c1ccccc1)(c1ccccc1)c1ccccc1 [Compound 4, pyropheophorbide a 9-(N-3-triphenylphosphoniumpropyl bromide)aminomethyl methyl ester] | – | 0.048 | 50.90 | – | – |
| CCC1=C(C)c2cc3[nH]c(cc4nc(c5c6[nH]c(cc1n2)c(C)c6C(=O)C5)[C@@H](CCC(=O)OC)[C@@H]4C)c(C)c3COC(=O)CCCC[P+](c1ccccc1)(c1ccccc1)c1ccccc1 [Compound 2, pyropheophorbide a methyl ester 9-(oxopentyl)triphenylphosphonium bromide] | 0.415 | 0.002 | – | – | – |
| CCC1=C(C)c2cc3[nH]c(cc4nc(c5c6[nH]c(cc1n2)c(C)c6C(=O)C5)[C@@H](CCC(=O)OC)[C@@H]4C)c(C)c3CN(C)C(=O)CCCC[P+](c1ccccc1)(c1ccccc1)c1ccccc1 [Compound 3, pyropheophorbide a 9-N-(methyl-5-triphenylphosphonium bromidepentanamide) methyl ester] | 24.00 | 0.012 | – | – | – |
| CCOC(=O)N(CCC[P+](c1ccccc1)(c1ccccc1)c1ccccc1)Cc1c(C)c2cc3nc(c4c5[nH]c(cc6nc(cc1[nH]2)C(C)=C6CC)c(C)c5C(=O)C4)[C@@H](CCC(=O)OC)[C@@H]3C [Compound 5, pyropheophorbide a 9-(N-3-triphenylphosphoniumpropyl bromide ethylcarbamate)aminomethyl methyl ester] | – | 0.006 | 48.97 | – | – |
